Laboratory results: BindingDB's records for doi:10.1002/syn.890150302 (Vanderbilt University, 1993)
“And” between values parts separate entries of the source, which are not always exact repeats. Equal values may be shown once.

Target: D(2) dopamine receptor (Rattus norvegicus, UniProt P61169)
Sequence (P61169 whole entry): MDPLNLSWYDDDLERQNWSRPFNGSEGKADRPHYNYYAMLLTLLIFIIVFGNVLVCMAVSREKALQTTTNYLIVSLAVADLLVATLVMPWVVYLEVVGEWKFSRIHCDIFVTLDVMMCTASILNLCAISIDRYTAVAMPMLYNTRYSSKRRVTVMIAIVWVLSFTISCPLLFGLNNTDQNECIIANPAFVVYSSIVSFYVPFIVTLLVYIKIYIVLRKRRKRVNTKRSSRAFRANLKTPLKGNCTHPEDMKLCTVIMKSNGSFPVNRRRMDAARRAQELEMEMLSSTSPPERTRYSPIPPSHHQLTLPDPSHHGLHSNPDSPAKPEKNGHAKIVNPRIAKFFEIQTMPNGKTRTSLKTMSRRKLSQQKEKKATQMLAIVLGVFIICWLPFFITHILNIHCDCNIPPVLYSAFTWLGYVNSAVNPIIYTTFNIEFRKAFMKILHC

Compound	Ki
NCc1cc(=O)[nH]o1	> 10 µM
CCN1CCC[C@H]1CNC(=O)c1cc(I)cc(OC)c1OC	0.0001 µM and 0.00012 µM
c1ccc2c(c1)OCC(C1=NCCN1)O2 (centres undefined)	> 10 µM
O=C(c1ccc(F)cc1)C1CCN(CCn2c(=O)[nH]c3ccccc3c2=O)CC1 [3-(2-{4-[(4-fluorophenyl)carbonyl]piperidin-1-yl}ethyl)-1,2,3,4-tetrahydroquinazoline-2,4-dione]	0.555 µM and 0.519 µM
CN1CCc2cc3c(cc2[C@H]1[C@@H]1OC(=O)c2c1ccc1c2OCO1)OCO3 [(R)-6-((S)-6-methyl-5,6,7,8-tetrahydro-[1,3]dioxolo[4,5-g]isoquinolin-5-yl)isobenzofuro[5,4-d][1,3]dioxol-8(6H)-one]	> 10 µM
C=CCc1ccccc1OC[C@@H](O)CNC(C)C [ALPRENOLOL,(-)]	> 10 µM and 6.86 µM
C=CCN1CC[C@]2(C)c3cc(O)ccc3C[C@@H]1[C@@H]2C [SKF 10,047 (-)]	> 10 µM
CN1[C@@H]2CC[C@H]1C[C@@H](OC(=O)c1cc(Cl)cc(Cl)c1)C2 [TROPANYL 3,5-DICHLOROBENZOATE]	> 10 µM
COc1cc2nc(N3CCN(C(=O)c4ccco4)CC3)nc(N)c2cc1OC [[3H]-Minipress]	> 10 µM
